# Laboratory results: patent US10300065B2, “Method of treating or prevention of atherothrombotic events in patients with history of myocardial infarction” (ASTRAZENECA AB, priority 2015, dated 2019)
# How the values were obtained:
# thromboxane B2 = conditions: either ticagrelor group
# platelets [1] = conditions: for most patients; cited from earlier work
# platelets [2] = assay: VerifyNow P2Y12 assay (platelet reactivity, PRU), platelet function substudy; assay type: cell-based, human; conditions: for VerifyNow % inhibition Post dose / VerifyNow PRU Post dose: 2 h post dose; for VerifyNow % inhibition Post dose / VerifyNow PRU Post dose / VerifyNow % inhibition Pre dose / VerifyNow PRU Pre dose: mean (SD)
# Method: The pharmacokinetics (PK) and pharmacodynamics of the 60 mg bid dose had not previously been studied. […] 180 patients who had received >4 weeks of study medication had blood sampling in the morning pre-maintenance dose and again 2 h post-dose. All patients were receiving aspirin. […] Well-known VerifyNow® P2Y12 assay and light transmittance aggregometry (LTA; ADP 20 uM) were performed. Groups were compared using Kruskal-Wallis test with significance attached to P<0.01 to allow for multiple group comparisons.
# [3] = test system: patients with a history of myocardial infarction; assay: PEGASUS-TIMI 54 trial, efficacy endpoints (intention-to-treat / full analysis set); assay type: in vivo, human
# Text: The PEGASUS-TIMI 54 trial (also referred to as the PEGASUS trial or PEGASUS study herein) was a randomized, double-blind, placebo-controlled multinational clinical trial that enrolled over 21,000 patients at 1,161 sites in 31 countries. The protocol was approved by the relevant ethics committees at all participating sites. In the U.S., the PEGASUS trial was assigned a ClinicalTrials.gov number of NCT01225562.
# Patients could be randomized regardless of their prior adenosine diphosphate (ADP) receptor blocker therapy or a lapse in therapy.
# Randomization was performed using a central computerized telephone or web based system, and allocation was double-blind.
# All patients enrolled in the PEGASUS trial were instructed to take open label aspirin at a dose of 75 to 150 mg daily.
# A total of 1360 primary endpoint events would be required to provide approximately 90% power to detect a 20% relative risk reduction with the 90 mg twice daily dose and approximately 83% power to detect a 19% relative risk reduction with the 60 mg twice daily dose when each dose was compared individually with placebo. The primary efficacy analysis was conducted on an intention-to-treat basis, with each of the two doses individually compared to placebo, as a time to event analysis from randomization to the first occurrence of any element of the primary composite endpoint: cardiovascular death, myocardial infarction, or stroke. […] An exploratory analysis of both doses combined compared with placebo was prespecified.
# [4] = 60 mg bd, 5695 patients with a coronary stent
# [5] = 60 mg bid (N = 7045), at 3 years
smiles,measurement,setting,value
"CCCSc1nc(N[C@@H]2C[C@H]2c2ccc(F)c(F)c2)c2nnn([C@@H]3C[C@H](OCCO)[C@@H](O)[C@H]3O)c2n1 [Ticagrelor, (1S,2S,3R,5S)-3-[7-{[(1R,2S)-2-(3,4-difluorophenyl)cyclopropyl]amino}-5-(propylthio)-3H-[1,2,3]-triazolo[4,5-d]pyrimidin-3-yl]-5-(2-hydroxyethoxy)cyclopentane-1,2-diol]",serum thromboxane B2 levels vs placebo group,thromboxane B2,no differences
same,onset of antiplatelet effect,platelets [1],≤ 2 h
same,High platelet reactivity assessed by VerifyNow (PRU >208),"platelets [2]; 60 mg, post dose",absent
same,"High platelet reactivity assessed by VerifyNow (PRU >208), patients","platelets [2]; 60 mg, pre-dose",3.5%
same,VerifyNow % inhibition Post dose,platelets [2]; ticagrelor 60 mg bid,90 (13) %
same,VerifyNow PRU Post dose,platelets [2]; ticagrelor 60 mg bid,29 (39) PRU
same,VerifyNow % inhibition Pre dose,platelets [2]; ticagrelor 60 mg bid,78 (20) %
same,VerifyNow PRU Pre dose,platelets [2]; ticagrelor 60 mg bid,59 (63) PRU
same,VerifyNow % inhibition Post dose,platelets [2]; ticagrelor 90 mg bid,92 (8) %
same,VerifyNow PRU Post dose,platelets [2]; ticagrelor 90 mg bid,20 (19) PRU
same,VerifyNow % inhibition Pre dose,platelets [2]; ticagrelor 90 mg bid,83 (14) %
same,VerifyNow PRU Pre dose,platelets [2]; ticagrelor 90 mg bid,47 (43) PRU
same,Time to first stent thrombosis: HR,[3]; 60 mg bd vs placebo,0.82
same,"Composite of CV Death/MI/Stroke, landmark: KM % at 12 months","[3]; 60 mg bd, 1-360 days",2.7%
same,"Composite of CV Death/MI/Stroke, landmark: Patients with events","[3]; 60 mg bd, 1-360 days",189
same,"Composite of CV Death/MI/Stroke, landmark: Patients with events (%)","[3]; 60 mg bd, 1-360 days",(2.7%)
same,Stent thrombosis: Patients (%) with events,[3]; [4],(0.7%)
same,Stent thrombosis: Patients with events,[3]; [4],41
same,"Composite of CV Death/MI/Stroke, landmark: Patients with events","[3]; 60 mg bd, 361 days or more",298
same,"Composite of CV Death/MI/Stroke, landmark: Patients with events (%)","[3]; 60 mg bd, 361 days or more",(4.4%)
same,Stent thrombosis: KM %,"[3]; 60 mg bd, at 36 months",0.8%
same,"Composite of CV Death/MI/Stroke, landmark: KM % at 24 months","[3]; 60 mg bd, cumulative from day 361 to day 720",2.7%
same,"Composite of CV Death/MI/Stroke, landmark: KM % at 36 months","[3]; 60 mg bd, cumulative from day 361 to day 1080",5.2%
same,MI: ARR (%),[3]; 60 mg bid,0.72%
same,MI: NNT,[3]; 60 mg bid,139
same,Stroke: ARR (%),[3]; 60 mg bid,0.47%
same,Stroke: NNT,[3]; 60 mg bid,213
same,All Stroke: n,[3]; 60 mg bid (N = 7045),91
same,Cardiovascular Death or Myocardial infarction: 3-year Kaplan-Meier estimate,[3]; 60 mg bid (N = 7045),(6.77) %
same,Cardiovascular Death or Myocardial infarction: n,[3]; 60 mg bid (N = 7045),422
same,"Cardiovascular Death, Myocardial infarction, or Stroke: 3-year Kaplan-Meier estimate",[3]; 60 mg bid (N = 7045),7.77%
same,"Cardiovascular Death, Myocardial infarction, or Stroke: n",[3]; 60 mg bid (N = 7045),487
same,Cardiovascular Death: n,[3]; 60 mg bid (N = 7045),174
same,Coronary Heart Disease Death or Myocardial infarction: 3-year Kaplan-Meier estimate,[3]; 60 mg bid (N = 7045),(5.57) %
same,Coronary Heart Disease Death or Myocardial infarction: n,[3]; 60 mg bid (N = 7045),360
same,"Coronary Heart Disease Death, Myocardial infarction, or Stroke: 3-year Kaplan-Meier estimate",[3]; 60 mg bid (N = 7045),(7.09) %
same,"Coronary Heart Disease Death, Myocardial infarction, or Stroke: n",[3]; 60 mg bid (N = 7045),445
same,Coronary Heart Disease Death: 3-year Kaplan-Meier estimate,[3]; 60 mg bid (N = 7045),(1.72) %
same,Coronary Heart Disease Death: n,[3]; 60 mg bid (N = 7045),106
same,Death from any cause: n,[3]; 60 mg bid (N = 7045),289
same,Hospitalization for Unstable Angina: n,[3]; 60 mg bid (N = 7045),39
same,Ischemic Stroke: 3-year Kaplan-Meier estimate,[3]; 60 mg bid (N = 7045),(1.28) %
same,Ischemic Stroke: n,[3]; 60 mg bid (N = 7045),78
same,Myocardial infarction as first-occurring component of the composite: n (patients with event),[3]; 60 mg bid (N = 7045),283
same,Myocardial infarction: n,[3]; 60 mg bid (N = 7045),285
same,Stroke as first-occurring component of the composite: n (patients with event),[3]; 60 mg bid (N = 7045),88
same,Transient Ischemic Attack: n,[3]; 60 mg bid (N = 7045),17
same,Urgent Coronary Revascularization for Unstable Angina: n,[3]; 60 mg bid (N = 7045),62
same,Hospitalization for Unstable Angina: (%),[3]; [5],(0.61) %
same,Transient Ischemic Attack: (%),[3]; [5],(0.27) %
same,Urgent Coronary Revascularization for Unstable Angina: (%),[3]; [5],(0.95) %
same,Cardiovascular Death or Myocardial infarction: HR,[3]; 60 mg bid vs Placebo,0.85
same,"Cardiovascular Death, Myocardial infarction, or Stroke: HR",[3]; 60 mg bid vs Placebo,0.84
same,Cardiovascular Death: HR,[3]; 60 mg bid vs Placebo,0.83
same,Coronary Heart Disease Death or Myocardial infarction: HR,[3]; 60 mg bid vs Placebo,0.84
same,"Coronary Heart Disease Death, Myocardial infarction, or Stroke: HR",[3]; 60 mg bid vs Placebo,0.83
same,Coronary Heart Disease Death: HR,[3]; 60 mg bid vs Placebo,0.80
same,Coronary stent thrombosis: RRR,[3]; 60 mg bid vs Placebo,18%
same,Death from any cause: HR,[3]; 60 mg bid vs Placebo,0.89
same,Hospitalization for Unstable Angina: HR,[3]; 60 mg bid vs Placebo,1.05
same,Ischemic Stroke: HR,[3]; 60 mg bid vs Placebo,0.76
same,Transient Ischemic Attack: HR,[3]; 60 mg bid vs Placebo,1.00
same,Urgent Coronary Revascularization for Unstable Angina: HR,[3]; 60 mg bid vs Placebo,0.82
same,"coronary heart disease death, myocardial infarction, or stroke: RRR",[3]; 60 mg bid vs Placebo,17%
same,"Irreversible harm (CV death, MI, stroke, ICH, or fatal bleeding): HR",[3]; 60 mg bid vs. placebo (N = 6958),0.86
